3 compounds from patent publication US20180353445A1, “METHODS AND COMPOSITIONS RELATING TO PROTEASOME INHIBITOR RESISTANCE” (Whitehead Institute for Biomedical Research, priority 2017, published 2018) can be followed below.

Entries after “also recorded” stand apart in the source; their conditions may differ.

Assay type in all cases: cell-based, human
For assay [1], the system named is T47D cells. Briefly: Competition co-culture of TurboRFP PSMD2 shRNA and GFP control shRNA T47D cells, FACS/microscopy. The following applies: 1:10 plating ratio, panel of proteasome inhibitors. As to the method:
We created two cell lines—one line that expresses red fluorescent protein (turboRFP) and the doxycycline-inducible PSMD2-targeting shRNA and another line that expresses green fluorescent protein (GFP) and a doxycycline-inducible control shRNA (FIG. 6A). First, we induced shRNA expression with doxycycline for 48 hours. After recovery, we mixed shPSMD2-RFP and shControl-GFP cells at different ratios (either 1:1, 1:2, 1:5 or 1:10), adding the cells with reduced PSMD2 as the minority subpopulation. Twenty-four hours after plating, we treated these mixed populations of cells for 48 hours with increasing concentrations of bortezomib (5, 7.5 or 10 nM). We allowed the cells to recover in the absence of bortezomib and then we quantified the red and green cells by FACS analysis (FIG. 6A) and captured representative images by fluorescence microscopy (FIG. 6B),
The experiment described in Example 10 was repeated with minor differences using a panel of different proteasome inhibitors: MLN2238, MLN9708, and oprozomib T47D cells harboring a doxycycline inducible control shRNA (GFP) or a doxycycline-inducible PSMD2 shRNA (TurboRFP) were incubated with doxycycline for 3 days. Cells were collected, counted, and plated at a 1:10 ratio of TurboRFP-expressing PSMD2 shRNA cells/GFP expression control shRNA cells in the absence of Dox. Proteasome inhibitors were added at the specified concentrations and cells were maintained in culture. Cells were allowed to recover in the absence of the proteasome inhibitor and then analyzed by FACS (FIG. 8B, top) or visualized by microscopy (FIG. 8B, bottom). In the absence of proteasome inhibitors, the initial plating ratio of these cells (1:10) was maintained over the duration of the experiment (FIG. 8B). […]
Visualization and FACS analysis of GFP/RFP levels—cells were trypsinized in 100 μL Accumax® solution and further diluted into 100 μl PBSx1. The number of cells with red or areen fluorescent proteins was measured by MACSQuant® VYB according to manufactures protocol. […]

For assay [2], the system named is T47D cells with doxycycline inducible PSMD2 KD (Lo19S) versus control cells. Briefly: Lo19S T47D drug screen (PSMD2 KD versus control cells, CellTiter-Glo). The following applies: T47D, Lo19S state by dox-inducible PSMD2 shRNA; compound library screen; 72 h; CellTiter-Glo. The protocol: The effect of each drug on viability of cells was calculated by averaging the duplicate experiments. The data is plotted in FIG. 16 as the log2 of the ratio of viability of PSMD2 KD versus control cells (log2 (shPSMD2/Control)). […] The Selleck natural product library (NPC) comprising 502 compounds in 5 doses and the. NIH bioactive compound library that includes 731 compounds in 4 doses were also screened using the same system.
A deeper understanding of the proteasome inhibitor resistant state could yield insights into the molecular mechanisms activated by cells to cope with proteotoxic stress and elucidate new therapeutic strategies for cancer. With these goals in mind, we screened mechanistically diverse small molecule libraries to identify compound sensitivities altered by the Lo19S and Hi-OXPHOS states. An initial screen was conducted in the isogenic T47D model with transient induction of the Lo19S state as described above, We evaluated >4300 mechanistically well-defined compounds within 4 libraries. The compounds included approved cancer drugs (Selleck anti-cancer library: CDL), common natural products (Natural product library: NPC) and an ^-NIH bioactives library (NIH). Each of these compounds was tested at ≥4 concentrations. (Table S5, data not shown), An additional 2866 compounds from the Boston University's Chemical Methodology and Library Development (CMLD-BU) small molecule collection was screened at a single dose (BULL, see Table S5).
(§1) Generation of the Lo19S T47D cell line—For the generation of the T47D Tet-inducible PSMD2 knockdown cell line—the TRIPZ vector with an inducible shRNA targeting PSMD2 was purchased from Dharmacon (clone V3THS_403760). It was introduced to the T47D cells according to manufactures protocol and cells were selected with puromycin 1 g/ml for one week. The cells were exposed to doxycycline for 24 hours and cells were FACS sorted for the top 10% of most RFP expressing cells (highest expression of shRNA). The cells were further cultured in the absence of doxycycline and PSMD2 knockdown was induced as specified in the text.
After 48 hours the cells were collected counted and plated (in the absence of dox) at 1000 cells/well in 384-well opaque, white assay plates (Coming, NY), 50 uL per well, and incubated overnight at 37° C./5% CO2. Compound stocks from the Cancer drug library containing 349 bioactive compounds that were arrayed in dose 10 nM, 100 nM, 1 uM, 10 uM (Selleck anti-cancer compound library L3000), the natural products library containing 502 compounds that were utilized in 5 doses (dilution of 1:1000 of 2ug/ml, 0.2 ug/ml, 0.002/ug/ml, 0.0002 ug/ml), the NIH bioactive library including 731 drugs in dose of 10 nM, 100 nM, 1 uM, 10 uM and the Boston University's CMLD (Chemical Methodology and Library Development) compound deck containing 2866 compounds in one dose (10 uM), including novel chemotypes that uniquely probe three-dimensional space by employing stereochemical and positional variation within the molecular framework as diversity elements in library design. 50 nl of compounds were pin-transferred (V&P Scientific, CA, pin tool mounted onto Tecan Freedom Evo 150 MCA96 head, Tecan, Calif.) into duplicate assay plates and incubated for 72 h. The DMSO content was 0.1% within each well, Per plate, there are 32 wells of DMSO vehicle control and 32 wells of positive control compounds. After three days of incubation, 10 uL of CellTiter-Glo (Promega, Wis.) was added to each well, incubated for 10 minutes and the luminescence output was read on the M1000 Infinite Pro plate reader (Tecan, Calif.).
In general terms: ATP-based viability assays read luminescence as a measure of living cells.

Assay [3] has as its system T47D cells. Kind of assay: The glucose/galactose drug screen. To be noted: for relative viability change of cells grown in glucose versus galactose: 10 mM Glucose or Galactose, Selleck anti cancer and natural product libraries. As to the method:
We conducted a second set of drug screens to identify unique sensitivities conferred by the Hi-OXPHOS state using parental T47D breast cancer cells (without 19S subunit suppression). For this screen, we used the NPC and CDL libraries as they contained the greatest number of hits in the Lo19S screen. We tested over 800 compounds at multiple concentrations and measured their effects on relative cell growth/viability when cells were grown under aerobic glycolysis conditions (glucose-supplemented medium) or forced mitochondrial respiration conditions (galactose-supplemented medium).
The glucose/galactose drug screen—T47D cells growing in regular media were collected counted and after centrifugation cells were re-suspended in RPM1 media without glucose containing 10% dialyzed serum with the addition of either 10 mM glucose or 10 mM galactose, Cells were then plated at 1000 cells/well in 384-well opaque, white assay plates (Coming, N.Y.), 50 uL per well, and incubated overnight at 37°C./5% CO2. Application of the drug libraries and cell viability was executed as described above for the Lo19S drug screen.

For assay [4], the system named is T47D cells. Kind of assay: Drug library screen (Selleck anti-cancer, NPC, NIH bioactive), PSMD2 KD vs control T47D cells. As to the method:
Schematic representation of the drug screen setup. (FIG. 37A) 147D cells harboring a doxycycline-inducible PSMD2 shRNA were grown in the presence or absence of doxycycline for 48 hr. Cells were then collected, washed, and plated in the absence of doxycycline for 24 hr prior to exposure different compounds. Relative cell numbers were measured 3 days later.
The relative viability of the Lo19S versus control cells was calculated for replica experiments and the log2 of the ratio is plotted. […] The relative viability of the respiring cells (Hi-OXPHOS) (gal) versus the control cells (glu) was calculated for replica experiments and the log2 of the ratio is plotted.
After 48 hours the cells were collected, counted, and plated at 1000 cells/well in 384 well plates in duplicates for each cell line. Compounds from the Selleck Chemicals anti-cancer compound library (349 drugs in 4 concentrations; […]) were pinned the next day and viability was measured after 72 hours by the reduction of Resazurin (Ex=530 run, Em=590nin). (See FIG. 37A for schematic of screen.)

The test system of assay [5] is IMR32 (reduced PSMD5) and Kelly neuroblastoma cells. Briefly: Viability of IMR32 versus Kelly neuroblastoma cells (CellTiter-Glo). The following applies: 72 hours after addition; CellTiter-Glo. As to the method: To determine whether these compounds also differentially affect cells with reduced expression of PSDMS, IMR32 and Kelly cells were each cultured in the presence of ABT-263, disulfiram, or elesclomol across a range of concentrations. Cell viability was measured by CellTiter-Glo® Luminescent Cell Viability Assay 72 hours after addition of the compound to cells. The fold viability relative to culture in the absence of the compound was determined for each cell line. […] In the experiment shown in FIG. 24, the lowest lower concentration of ABT-263 and disulfiram tested was 1 uM.
ABT-263 targets several members of the BCL2 family, including BCL2 and BCL-XL.

The test system is the same in assay [6]. Described as above. To be noted: other experiments, e.g., 0.1 uM.
Assay [7] has as its system T47D cells. Kind of assay: Cell viability, T47D cells with doxycycline-inducible PSMD2 shRNA (KD) vs control. The following applies: T47D, transient PSMD2 reduction. As to the method: FIGS. 37A-37E: Subunit suppression results in highly specific drug sensitivity alteration. Schematic representation of the drug screen setup. (FIG. 37A) 147D cells harboring a doxycycline-inducible PSMD2 shRNA were grown in the presence or absence of doxycycline for 48 hr. Cells were then collected, washed, and plated in the absence of doxycycline for 24 hr prior to exposure different compounds. Relative cell numbers were measured 3 days later. […] (FIGS. 37C-37E) The relative viability of the PSMD2 knockdown (KD) versus the control was calculated for replica experiments and the log2 of the ratio is plotted for 349 compounds from the Selleck anti-cancer L3000 drug library that were tested in 4 concentrations (FIG. 37C), the Selleck natural product library (NPC) comprising 502 compounds in 5 doses (FIG. 37D), and the NIH bioactive compound library that includes 731 compounds in 4 doses (FIG. 37E). Specific compounds are annotated.
The effect of transient PSMD2 reduction on growth of T47D cells in the presence of different proteasome inhibitors (bortezomib, MLN9708, carfilzomib, oprozornib) was tested. T47D cells harboring a doxycycline inducible control shRNA (GFP) or a doxycycline-inducible PSMD2 shRNA (TurhoRFP) were incubated with doxycycline for 3 days. Cells were then split and grown in the absence of Dox and proteasome inhibitors were then added at various concentrations. Cells were maintained in culture and then counted.
as §1, with “For” for “Generation of the Lo19S T47D cell line—For”, “line- the” for “line—the”, “Dhannacon” for “Dharmacon”, “μg/ml” for “g/ml”, “relevant Examples. The TRIPZ control GFP vector was created by removing the turboRFP from the TRIPZ control vector by digestion with Agel and ClaI and replacing it with GFP amplified with primers flanking with Agel and Clal restriction sites.” for “text.”
Cell Viability Assay—Relative cell growth and survival were measured in 96-well microplate format in the shRNA experiments and in 384 well format in the drug toxicity assays, by using the fluorescent detection of resazurin dye reduction as an endpoint (544 nm excitation and 590 run emission). 2,500 cells in 96 wells format or 1,000 cells in 384 well format were plated 24 hours before compound exposure (for 72 hours or indicated time). Each analysis was performed at least with three replicas.

As to `CC(C)C[C@H](NC(=O)CNC(=O)c1cc(Cl)ccc1Cl)B(O)O` [MLN2238], the “shift of surviving population toward PSMD2 shRNA cells” value in assay [1] is on record as “substantially shifted the populations of surviving cells”. Also, the “viability of PSMD2 KD versus control cells (log2 (shPSMD2/Control))” value in assay [2] is recorded as “selectively reduce viability of control cells versus PSMD2 KD cells”. Besides, the “relative viability change of cells grown in glucose versus galactose” value in assay [3] is “strongest hits in this screen”.

Consider `CCN(CC)C(=S)SSC(=S)N(CC)CC` [disulfiram, tetraethylthiuram disulfide], for which the “sensitivity of proteasome inhibitor resistant cancer cells vs sensitive counterpart cells” value in assay [4] is given as “highly sensitive”. In addition, in assay [4] (Selleck anti-cancer compound library screen), the “growth inhibition of T47D cells with reduced level of PSMD2 vs control T47D cells” value is listed as “selectively inhibit growth”. Moreover, the “viability of PSMD2 KD versus control cells (log2 (shPSMD2/Control))” value in assay [2] was “selectively reduce the viability of PSMD2 KD cells versus control cells; also recorded: selectively sensitized cells; also recorded: highly effective in slowing the growth of cells in the Lo19S state”. Further, the “sensitivity of IMR32 cells relative to Kelly cells (fold viability)” value in assay [5] is “dramatically more sensitive”. Further, in assay [3], the “relative viability change of cells grown in glucose versus galactose” value was “cells that respire are predominantly sensitive; also recorded: preferentially targeted respiring cells; also recorded: more potent in cells in the Hi-OXPHOS state”. Moreover, in assay [3] (galactose versus glucose), the “number of concentrations at which respiring cells were preferentially targeted” value is on record as 4 concentrations. Besides, in assay [6], the “toxicity at lower concentrations than 1 uM” value is “a similar level of toxicity was observed”.

For the compound `COC[C@H](NC(=O)c1cnc(C)s1)C(=O)N[C@@H](COC)C(=O)N[C@@H](Cc1ccccc1)C(=O)[C@@]1(C)CO1` [oprozomib], the “resistance of cells harboring PSMD2 shRNA vs parental line (EC50)” value in assay [7] is “EC50 values increased considerably”. The “shift of surviving population toward PSMD2 shRNA cells” value in assay [1] was “substantially shifted the populations of surviving cells”.
